A short description of this series: Stability profile at 25° C. in buffered aqueous solutions. The series is classed as physicochemical. Particulars: for Degradation Rate Constant (k): 25° C. From the text: While not intending to be bound in any way by theory, the base-catalyzed degradation is unexpected because the commercial proton pump inhibitors are stabilized in aqueous solutions by adjusting the solution to high pH. […] This should allow bolus injection of the compounds disclosed herein as opposed to the slow infusion of the drug currently in practice because the present compositions will not have the irritation associated with the high pH traditionally used with proton pump inhibitors. This should also allow greater flexibility in co-administering these compounds with drugs which are unstable or otherwise incompatible with high pH.

For the compound `COc1ccc2c(c1)nc([S+]([O-])Cc1ncc(C)c(OC)c1C)n2S(=O)(=O)c1ccc(OCC(=O)O)cc1` (centres unmarked) [Compound 1], the shelf-life entry (in a neutral solution) is reported as “over forty hours”. Moreover, the Degradation Rate Constant (k) runs as follows: (pH 1, 0.1 M HCl) 0.194 h⁻¹; (pH 3, Citric Acid (0.1 M)/Na2HPO4 (0.2 M)) 0.009 h⁻¹; (pH 5, Citric Acid (0.1 M)/Na2HPO4 (0.2 M)) 0.008 h⁻¹; (pH 7, sodium phosphate (0.1-0.2 M)) 0.002 h⁻¹; (pH 7.4, sodium phosphate (0.1-0.2 M)) 0.002 h⁻¹; (pH 9, sodium phosphate (0.1-0.2 M)) 0.03 h⁻¹. The compound further came in with a Degradation Rate Constant (k) (pH 10, sodium phosphate (0.1-0.2 M)) of 0.298 h⁻¹.

The values are drawn from patent US20100222390A1, “Methods and Compositions for the Intravenous Administration of Compounds Related to Proton Pump Inhibitors” (Alevium Pharmaceuticals, Inc., priority 2004, published 2010).
